From PMC8372318, “Automated affinity selection for rapid discovery of peptide binders” (Chemical Science, 2021)
Square brackets hold non-standard residues; d marks the D form. Ends that are not written are not given here. Peptide text beside a SMILES is read from it. * marks the point of attachment. Biotin = O=C1N[C@H]2[C@H](CS[C@H]2CCCCC(=O)*)N1; Phe(4-CH2NH2) = NCc1ccc(C[C@H](N)C(=O)O)cc1; Arg(Me2s) = CN=C(NC)NCCC[C@H](N)C(=O)O; hArg = N=C(N)NCCCC[C@H](N)C(=O)O; Cha = N[C@@H](CC1CCCCC1)C(=O)O; Lys(Me) = CNCCCC[C@H](N)C(=O)O; Cba = N[C@@H](CC1CCC1)C(=O)O; PEG4 = NCCOCCOCCOCCOCCC(=O)O; Pip = O=C(O)[C@@H]1CCCCN1; Dab = NCC[C@H](N)C(=O)O

T1: tMBM3 (truncated MLL menin binding motif) (Homo sapiens, also: additional C-terminal Arg)
T1 chain: RFPARPR

T2: recombinant menin protein (Homo sapiens, UniProt O00255)
T2 sequence (O00255 1-610): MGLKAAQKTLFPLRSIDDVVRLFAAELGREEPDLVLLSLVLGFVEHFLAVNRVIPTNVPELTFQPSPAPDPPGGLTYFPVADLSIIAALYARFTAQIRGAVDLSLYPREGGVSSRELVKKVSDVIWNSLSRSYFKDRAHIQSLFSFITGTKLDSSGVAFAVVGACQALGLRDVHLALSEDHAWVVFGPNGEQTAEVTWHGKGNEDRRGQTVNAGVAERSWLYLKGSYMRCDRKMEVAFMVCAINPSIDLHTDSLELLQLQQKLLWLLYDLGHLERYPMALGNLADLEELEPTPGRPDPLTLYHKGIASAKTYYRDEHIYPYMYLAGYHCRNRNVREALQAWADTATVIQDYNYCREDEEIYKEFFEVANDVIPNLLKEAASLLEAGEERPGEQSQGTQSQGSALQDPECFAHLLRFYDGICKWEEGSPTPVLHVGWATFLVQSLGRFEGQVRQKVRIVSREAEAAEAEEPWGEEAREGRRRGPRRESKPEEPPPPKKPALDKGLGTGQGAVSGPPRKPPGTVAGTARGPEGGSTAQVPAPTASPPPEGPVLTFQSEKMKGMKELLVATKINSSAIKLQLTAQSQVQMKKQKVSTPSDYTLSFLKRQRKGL

B1: menin (protein)
chain: T2 sequence (O00255 1-610)

Target: T1, tMBM3 (truncated MLL menin binding …)
Experiment: BLI
Details: not given

Molecule | Kd
B1 | > 3.8 µM

Each molecule was assayed against human ACE2 (Homo sapiens, UniProt Q9BYF1) (assay: not given). Details: highest tested peptide concentration 1000 nM; also biosensor alone.
Type: binding

human ACE2, sequence (Q9BYF1 18-805): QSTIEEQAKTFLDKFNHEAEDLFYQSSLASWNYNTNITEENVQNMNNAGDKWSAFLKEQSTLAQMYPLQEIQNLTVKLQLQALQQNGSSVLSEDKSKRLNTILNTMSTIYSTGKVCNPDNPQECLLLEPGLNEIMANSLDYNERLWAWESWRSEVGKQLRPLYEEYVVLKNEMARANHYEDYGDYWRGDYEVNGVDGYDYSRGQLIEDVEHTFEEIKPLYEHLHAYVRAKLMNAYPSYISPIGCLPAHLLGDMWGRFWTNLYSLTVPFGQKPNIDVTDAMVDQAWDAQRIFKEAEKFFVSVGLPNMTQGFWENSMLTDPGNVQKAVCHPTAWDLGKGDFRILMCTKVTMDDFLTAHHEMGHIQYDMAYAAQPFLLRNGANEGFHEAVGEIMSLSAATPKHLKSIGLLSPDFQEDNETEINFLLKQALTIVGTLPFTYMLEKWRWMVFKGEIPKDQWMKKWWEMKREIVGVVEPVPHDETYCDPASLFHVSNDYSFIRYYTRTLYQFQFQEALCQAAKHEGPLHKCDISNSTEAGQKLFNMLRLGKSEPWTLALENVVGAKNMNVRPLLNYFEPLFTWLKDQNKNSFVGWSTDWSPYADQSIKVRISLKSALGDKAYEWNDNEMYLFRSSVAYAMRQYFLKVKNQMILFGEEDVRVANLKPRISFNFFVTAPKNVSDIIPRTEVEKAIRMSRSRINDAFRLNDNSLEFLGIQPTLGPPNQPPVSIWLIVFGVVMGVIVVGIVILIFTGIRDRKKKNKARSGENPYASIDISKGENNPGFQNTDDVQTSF

Molecule | capture by control protein
YPYDVPDYAK [HA tag] | not captured

Each molecule was assayed against T2, recombinant menin protein (assay: Bio-layer interferometry peptide-binding validation (Octet RED96)). Details: not given.

Molecule | Kd | KD (nM), apparent dissociation constant
C[C@H](NC(=O)[C@@H]1CCCN1C(=O)[C@H](Cc1ccccc1)NC(=O)[C@H](CCCNC(=N)N)NC(=O)[C@H](Cc1c[nH]c2ccccc12)NC(=O)[C@@H](N)CCCNC(=N)N)C(=O)N[C@@H](CCCNC(=N)N)C(=O)N1CCC[C@H]1C(N)=O [MBM1, reference compound] (H-RWRFPARP-NH2) | 0.03 µM | 
CC(C)[C@H](NC(=O)[C@@H]1CCCCN1C(=O)[C@H](CC1CCC1)NC(=O)[C@H](CCCNC(=N)N)NC(=O)CCOCCOCCOCCOCCNC(=O)CCCC[C@@H]1SC[C@@H]2NC(=O)N[C@@H]21)C(=O)N[C@@H](CCCNC(=N)N)C(=O)N1CCCC[C@H]1C(=O)N[C@@H](CCCNC(=N)N)C(N)=O [hit 1] ({Biotin-PEG4}-R[Cba][Pip]VR[Pip]R-NH2) | 0.034 µM | 
CN=C(NC)NCCC[C@H](NC(=O)[C@@H](NC(=O)[C@@H]1CCCCN1C(=O)[C@H](CC1CCCCC1)NC(=O)[C@H](CCCCN)NC(=O)CCOCCOCCOCCOCCNC(=O)CCCC[C@@H]1SC[C@@H]2NC(=O)N[C@@H]21)C(C)C)C(=O)N1CCCC[C@H]1C(=O)N[C@@H](CCCNC(=N)N)C(N)=O [hit 6-1] ({Biotin-PEG4}-K[Cha][Pip]V[Arg(Me2s)][Pip]R-NH2) | 0.02 µM | 
CC(C)[C@H](NC(=O)[C@@H]1CCCCN1C(=O)[C@H](CC1CCCCC1)NC(=O)[C@H](CCN)NC(=O)CCOCCOCCOCCOCCNC(=O)CCCC[C@@H]1SC[C@@H]2NC(=O)N[C@@H]21)C(=O)N[C@@H](CCCNC(=N)N)C(=O)N1CCCC[C@H]1C(=O)N[C@@H](Cc1ccc(CN)cc1)C(N)=O [hit 6-2] ({Biotin-PEG4}-[Dab][Cha][Pip]VR[Pip][Phe(4-CH2NH2)]-NH2) | 0.045 µM | 
CC(C)[C@H](NC(=O)[C@@H]1CCCCN1C(=O)[C@H](CC1CCCCC1)NC(=O)[C@H](CCN)NC(=O)CCOCCOCCOCCOCCNC(=O)CCCC[C@@H]1SC[C@@H]2NC(=O)N[C@@H]21)C(=O)N[C@@H](CCCCNC(=N)N)C(=O)N1CCCC[C@H]1C(=O)N[C@@H](CCCNC(=N)N)C(N)=O [hit 6-3] ({Biotin-PEG4}-[Dab][Cha][Pip]V[hArg][Pip]R-NH2) | 0.034 µM | 
CNCCCC[C@H](NC(=O)[C@@H](NC(=O)[C@@H]1CCCCN1C(=O)[C@H](CC1CCCCC1)NC(=O)[C@H](CCCCN)NC(=O)CCOCCOCCOCCOCCNC(=O)CCCC[C@@H]1SC[C@@H]2NC(=O)N[C@@H]21)C(C)C)C(=O)N1CCCC[C@H]1C(=O)N[C@@H](CCCNC(=N)N)C(N)=O [hit 6-4] ({Biotin-PEG4}-K[Cha][Pip]V[Lys(Me)][Pip]R-NH2) | 0.087 µM | 
CNCCCC[C@H](NC(=O)[C@@H](NC(=O)[C@@H]1CCCCN1C(=O)[C@H](CC1CCCCC1)NC(=O)[C@H](Cc1c[nH]cn1)NC(=O)CCOCCOCCOCCOCCNC(=O)CCCC[C@@H]1SC[C@@H]2NC(=O)N[C@@H]21)C(C)C)C(=O)N1CCCC[C@H]1C(=O)N[C@@H](CCCNC(=N)N)C(N)=O [hit 6-5] ({Biotin-PEG4}-H[Cha][Pip]V[Lys(Me)][Pip]R-NH2) | 0.11 µM | 
CC(C)[C@H](NC(=O)[C@@H]1CCCCN1C(=O)[C@H](CC1CCCCC1)NC(=O)[C@H](CCCNC(=N)N)NC(=O)CCOCCOCCOCCOCCNC(=O)CCCC[C@@H]1SC[C@@H]2NC(=O)N[C@@H]21)C(=O)N[C@@H](CCCNC(=N)N)C(=O)N1CCCC[C@H]1C(=O)N[C@@H](CCCNC(=N)N)C(N)=O [hit 6] ({Biotin-PEG4}-R[Cha][Pip]VR[Pip]R-NH2) | 0.04 µM | 
C[C@H](NC(=O)[C@@H]1CCCN1C(=O)[C@H](Cc1ccccc1)NC(=O)[C@H](CCCNC(=N)N)NC(=O)[C@H](Cc1c[nH]c2ccccc12)NC(=O)[C@@H](N)CCCNC(=N)N)C(=O)N[C@@H](CCCNC(=N)N)C(=O)N1CCC[C@H]1C(=O)N[C@@H](CCCNC(=N)N)C(N)=O [tMBM1] (H-RWRFPARPR-NH2) | 0.014 µM | 
C[C@H](NC(=O)[C@@H]1CCCN1C(=O)[C@H](Cc1ccccc1)NC(=O)[C@H](CCCNC(=N)N)NC(=O)[C@H](Cc1c[nH]c2ccccc12)NC(=O)CCOCCOCCOCCOCCNC(=O)CCCC[C@@H]1SC[C@@H]2NC(=O)N[C@@H]21)C(=O)N[C@@H](CCCNC(=N)N)C(=O)N1CCC[C@H]1C(=O)N[C@@H](CCCNC(=N)N)C(N)=O [tMBM2] ({Biotin-PEG4}-WRFPARPR-NH2) | 0.067 µM | 
C[C@H](NC(=O)[C@@H]1CCCN1C(=O)[C@H](Cc1ccccc1)NC(=O)[C@H](CCCNC(=N)N)NC(=O)CCOCCOCCOCCOCCNC(=O)CCCC[C@@H]1SC[C@@H]2NC(=O)N[C@@H]21)C(=O)N[C@@H](CCCNC(=N)N)C(=O)N1CCC[C@H]1C(=O)N[C@@H](CCCNC(=N)N)C(N)=O [tMBM3] ({Biotin-PEG4}-RFPARPR-NH2) | > 3.8 µM | 3800 nM
